{"source": "ChEMBL document CHEMBL5380835", "about": "“Discovery of Clinically Used Octenidine as NRAS Repressor That Effectively Inhibits NRAS-Mutant Melanoma” (J Med Chem, 2023)", "key": {"SK-MEL-2 [1]": {"system": "SK-MEL-2", "test": "Cytotoxicity against human SK-MEL-2 cells expressing NRAS mutant assessed as cell growth inhibition incubated for 48 hrs by MTT assay", "assay_type": "functional, cell-based", "details": "SK-MEL-2, 48 h"}, "[2]": {"test": "Binding affinity to 5'-FAM-labeled to NRAS RNA G-quadruplex 5'-r(UGUGGGAGGGGCGGGUCUGGG)-3' (unknown origin) assessed as dissociation constant by fluorescence quenching assay"}, "SK-MEL-2 [3]": {"system": "SK-MEL-2", "test": "Antitumor activity against human SK-MEL-2 cells xenografted in BALB/c nude mouse assessed as tumor growth inhibition at 10 mg/kg/day, ip by electronic caliper method", "assay_type": "functional, organism-based", "details": "time 30.0 day, TDE = time-dependent effect"}, "SK-MEL-2 [4]": {"system": "SK-MEL-2", "test": "Antitumor activity against human SK-MEL-2 cells xenografted in BALB/c nude mouse assessed as reduction in tumor weight at 10 mg/kg/day, ip administered for 30 days by electronic caliper method", "assay_type": "functional, organism-based", "details": "time 30.0 day"}, "SK-MEL-2 [5]": {"system": "SK-MEL-2", "test": "Antitumor activity against human SK-MEL-2 cells xenografted in BALB/c nude mouse assessed as T/C ratio at 10 mg/kg/day, ip administered for 30 days relative to control", "assay_type": "functional", "details": "time 30 day"}, "SK-MEL-2 [6]": {"system": "SK-MEL-2", "test": "Antitumor activity against human SK-MEL-2 cells xenografted in BALB/c nude mouse assessed as tumor growth inhibition at 10 mg/kg/day, ip administered for 30 days relative to control", "assay_type": "functional", "details": "SK-MEL-2, 720 h, time 30 day, read-out: TGI"}, "SK-MEL-2 [7]": {"system": "SK-MEL-2", "test": "Cytotoxicity against human SK-MEL-2 cells assessed as cell growth inhibition incubated for 24 hrs by MTT assay", "assay_type": "functional, cell-based", "details": "SK-MEL-2, 24 h"}, "SK-MEL-2 [8]": {"system": "SK-MEL-2", "test": "Upregulation of NRAS mRNA level in human SK-MEL-2 cells at 1/2 times IC50 incubated for 24 hrs by RT-qPCR analysis", "assay_type": "functional, cell-based"}, "SK-MEL-2 [9]": {"system": "SK-MEL-2", "test": "Effect on NRAS protein translation in human SK-MEL-2 cells at 1/2 times IC50 incubated for 24 hrs by Western blot analysis", "assay_type": "functional, cell-based"}}, "note": "pIC50, pKd: −log10 of the molar value. Active and inactive are the calls of the source. No cut-off for these calls is given here.", "data": [{"smiles": "CCCCCNc1cc[n+](CCCCCCCCCC[n+]2ccc(NCCCCC)cc2)cc1", "values": [{"measurement": "pIC50", "setting": "SK-MEL-2 [1]", "value": 5.52}, {"measurement": "pKd", "setting": "[2]", "value": 5.73}]}, {"smiles": "CCCCCCNc1cc[n+](CCCCCCCCCC[n+]2ccc(NCCCCCC)cc2)cc1", "values": [{"measurement": "pIC50", "setting": "SK-MEL-2 [1]", "value": 6.04}, {"measurement": "pKd", "setting": "[2]", "value": 6.54}]}, {"smiles": "CN(C)/N=N/c1[nH]cnc1C(N)=O", "note": "[DACARBAZINE]", "values": [{"measurement": "Activity", "setting": "SK-MEL-2 [3]", "value": "Tde"}, {"measurement": "Activity", "setting": "SK-MEL-2 [4]", "value": "Active"}, {"measurement": "T/C", "setting": "SK-MEL-2 [5]", "value": 28.9, "unit": "%"}, {"measurement": "inhibition in vivo at 10 mg/kg/day", "setting": "SK-MEL-2 [6]", "value": 57.7, "unit": "%"}]}, {"smiles": "CN(C)c1ccc(C(=C2C=CC(=[N+](C)C)C=C2)c2ccc(N(C)C)cc2)cc1", "note": "[GENTIAN VIOLET]", "values": [{"measurement": "pIC50", "setting": "SK-MEL-2 [7]", "value": 5.54}, {"measurement": "pIC50", "setting": "SK-MEL-2 [1]", "value": 5.87}, {"measurement": "Activity", "setting": "SK-MEL-2 [8]", "value": "Active"}, {"measurement": "Activity", "setting": "SK-MEL-2 [9]", "value": "inactive"}]}]}
